From paper PMC8779631, “Binding Properties of Odorant-Binding Protein 4 of Tirathaba rufivena to Areca catechu Volatiles” (Plants, 2022)

Experiments:
[1] = biological target: TrufOBP4; experiment: Fluorescence competitive binding assay (displacement of 1-NPN); set-up: species or system Tirathaba rufivena; settings: 2 μM protein, 50 mM Tris-HCl pH 7.4; for Ki: Ki = IC50/(1 + [1-NPN]/K1-NPN); for IC50: ligand concentration displacing 50% of 1-NPN
Protocol: (§1) The binding ability of purified recombinant OBPs was evaluated with an F-7000 fluorescence spectrometer (Hitachi, Tokyo, Japan). The fluorescence spectra were recorded between 360 and 650 nm. N-Phenyl-1-naphthylamine (1-NPN) was selected as the fluorescent reporter and dissolved in chromatographic methanol at a concentration of 1 mM. The purified TrufOBP4 was dissolved in 50 mM Tris-HCl (pH 7.4) at a final concentration of 2 μM. The data for the 1-NPN-TrufOBP4 complex formation were obtained by titration of 2 μM protein with increasing concentrations (2 to 20 μM) of 1-NPN. The dissociation constant of 1-NPN (K1-NPN) was calculated using Prism 8 (GraphPad Software, San Diego, USA). To evaluate the binding ability of TrufOBP4 with volatiles, 1-NPN was replaced with different odor compounds from the TrufOBP4/1-NPN complex. The odor ligands were dissolved in chromatographic methanol at a concentration of 1 mM and added as aliquots to the protein solution. The spectral results were obtained, and the dissociation constants of the competitors were calculated with the formula: Ki = IC50/(1 + [1-NPN]/K1-NPN), where 1-NPN represents the free concentration of 1-NPN, and IC50 represents the ligand concentration displacing 50% of the fluorescent reporter.

[2] = system: Holotrichia oblita; set-up: method as in earlier work; settings: cited from earlier work
[3] = system: Rhyzopertha dominica; set-up: method as in earlier work; settings: cited from earlier work
[4] = system: Tribolium castaneum; set-up: method as in earlier work; settings: cited from earlier work
[5] = system: Hyphantria cunea; set-up: method as in PMID 32547409; settings: stimulation with the compound; cited from earlier work
[6] = system: AipsGOBP2; set-up: method as in PMID 29778539, PMID 29543772; settings: cited from earlier work
[7] = system: EoblGOBP2; set-up: method as in PMID 29778539, PMID 29543772; settings: cited from earlier work
[8] = biological target: TrufOBP4; experiment: Binding of fluorescent reporter 1-NPN (titration, Scatchard plot); set-up: species or system Tirathaba rufivena; settings: 2 μM protein titrated with 2 to 20 μM 1-NPN; read-out: K1-NPN (dissociation constant of 1-NPN)
Protocol: as §1

[9] = system: MbraPBP1; set-up: method as in PMID 11274212; settings: cited from earlier work
[10] = system: LsatOBP1; set-up: method as in PMID 11274212; settings: cited from earlier work
[11] = system: PregOBP56a; set-up: method as in PMID 23326317; settings: cited from earlier work

| Ki [1] | IC50 [1] | SMILES | further results |
| --- | --- | --- | --- |
| 19.5 µM | 22.4 µM | CC1=CCC2C(C1)C2(C)C (stereo not drawn) [3-Carene] | – |
| > 50 µM | > 50 µM | CCCCCCOC(C)=O [Hexyl acetate] | – |
| > 50 µM | > 50 µM | CC12CCC(CC1)C(C)(C)O2 [Cineole] | – |
| 21 µM | 24.1 µM | CCCCC(CC)CO (stereo not drawn) [2-Ethylhexanol] | – |
| 21 µM | 24.1 µM | CC(=O)OCCC(C)C [Isoanyl acetate] | – |
| 45.8 µM | > 50 µM | CCC(C)C(=O)OCCC(C)C (stereo not drawn) [3-Methylbutyl 2-methylbutanoate] | – |
| – | – | c1ccc(Nc2cccc3ccccc23)cc1 [1-NPN, N-Phenyl-1-naphthylamine] | Kd [8]: 6.79 µM |
| 29.1 µM | 33.4 µM | C=C(C)[C@@H]1CC=C(C)CC1 [(S)-(−)-Limonene] | – |
| 3.52 µM | 4.04 µM | CCCCCCCCCCCCCC(=O)O [Myristic acid] | – |
| > 50 µM | > 50 µM | C=CC(C)(O)CCC=C(C)C (stereo not drawn) [Linalol] | – |
| 5.28 µM | 6.06 µM | CCCCCCCCCCCCCCCC(=O)O [Palmitic acid] | binding [9]: bind well; binding [10]: bind well; binding affinity [11]: high binding affinity |
| 17.3 µM | 19.8 µM | C=CC(=C)CCC=C(C)C [Myrcene] | – |
| 1.16 µM | 1.33 µM | CCCCC(CC)COC(=O)C=Cc1ccc(OC)cc1 (stereo not drawn) [Octyl methoxycinnamate] | – |
| – | – | CCCCC/C=C\C/C=C\CCCCCCCC(=O)O [linoleic] | binding affinity [11]: high binding affinity |
| – | – | CCCCCCCC/C=C\CCCCCCCC(=O)O [oleic] | binding affinity [11]: high binding affinity |
| > 50 µM | > 50 µM | C=C(C)[C@H]1CC=C(C)CC1 [Cinene] | – |
| 29 µM | 33.3 µM | C=C1CCC2CC1C2(C)C (stereo not drawn) [β-Pinene] | – |
| > 50 µM | > 50 µM | COC(=O)c1ccccc1O [Methyl salicylate] | – |
| 22.1 µM | 25.3 µM | C=C(C)[C@H]1CC=C(C)CC1 [(R)-(+)-limonene] | – |
| 40.6 µM | 46.6 µM | CCC=CCCOC(C)=O [3-Hexenyl acetate] | – |
| – | – | CCCCCCCCCCCCCCCCCC(=O)O [stearic] | binding affinity [11]: high binding affinity |

| SMILES | Ki [1] | IC50 [1] | further results |
| --- | --- | --- | --- |
| CCCCOC(=O)c1ccccc1C(=O)OCCCC [Dibutyl phthalate] | 4.61 µM | 5.29 µM | effect on behavior [2]: attractive effect; effect on behavior [3]: repellent; effect on behavior [4]: repellent; mating rates [5]: significantly increased; binding affinity [6]: outstanding binding affinity; binding affinity [7]: outstanding binding affinity |
| C=Cc1ccccc1 [Styrene] | 36.2 µM | 41.5 µM | – |
